# Experiments:
# HIV-1NL4-3 K103N-Y181C = assay: Light assay with inhibitor-resistant HI reporter virus in MT4 7F2 cells; format: cell-based; conditions: Human immunodeficiency virus 1, read-out: EC50 (nM) MT4 7F2 cells HIV-1NL4-3 K103N-Y181C 2% FCS
# Protocol: (§1) For the mixture for a 96-well MTP, 3 million MT4 7F2 cells are pelleted, suspended in 1 ml of RPMI 1640 medium without phenol red (Invitrogen, Karlsruhe, Germany)/10% FCS/10% AIM-V (Invitrogen, Karlsruhe, Germany) and incubated together with a suitable amount of the corresponding HIV-1NL4-3 reporter virus at 37° C. for 2 hours (pellet infection). Unadsorbed viruses are subsequently washed out with PBS, and the infected cells are pelleted again and suspended in 8 ml of RPMI 1640 medium without phenol red/2% or 10% FCS/10% AIM-V. 80 μl thereof are pipetted into each well of a white 96-well MTP with 20 μl of test substance in suitable dilution. To avoid edge effects, the wells on the edge of the MTP are not used for substance dilutions. The second vertical row of the MTP contains only infected cells (virus control) and the eleventh vertical row only uninfected cells (cell control), in each case in RPMI 1640 medium without phenol red/2% or 10% FCS/10% AIM-V. The other wells of the MTP contain the compounds of the invention in various concentrations starting from the third vertical row, from which the test substances are diluted in 3-fold steps up to the tenth vertical row 3^7-fold. The test substances are dissolved in DMSO, whereby the final DMSO concentration in the test mixture is 1%. The test mixtures are incubated at 37° C./5% CO2 for five days and, after the addition of 15 μl of Lu164 substrate (5 mg/ml coelenterazine dissolved in 30 μM glutathione/DMSO, 100 mM NaCl, 1M MES, 100 mM glutathione), evaluated by luminometry. The resulting values are in the region of 1 000 000 RLUs (relative light units) for the virus control and 300 to 400 RLUs for the cell control. The EC50 values of the test substances are determined as the concentration at which the virus replication measured in RLUs is 50% of the untreated infected cells.
# reverse transcriptase = target: T1, reverse transcriptase (Human immunodeficiency virus type 1 group M subtype B, UniProt P03366); assay: Biochemical reverse transcriptase assay (Reverse Transcriptase Assay, colorimetric, Roche); conditions: read-out: IC50 (nM) RT assay
# T1 construct: negative control (mixture without reverse transcriptase); purchased Roche Diagnostics GmbH, Mannheim, Germany
# Protocol: The “Reverse Transcriptase Assay, colorimetric” (Roche Diagnostics GmbH, Mannheim, Germany) is used in accordance with the manufacturer's information. The test substances are dissolved in DMSO and are used in the test diluted in 5-fold steps (final DMSO concentration 1%). The resulting values of the photometric evaluation (405/492 nm) are less than 0.1 for the negative control (mixture without reverse transcriptase) and are in the region of 1.5 for the positive control (mixture without test substance). The IC50 values of the test substances are determined as the concentration of the test substance dilution at which the measured optical density is 50% of the positive control.
# HIV-1NL4-3 wt = assay: Light assay with wild-type HI reporter virus in MT4 7F2 cells; format: cell-based; conditions: Human immunodeficiency virus 1, 2% FCS
# Protocol: as §1
# HIV-1LAI = assay: H9 assay with wild-type HIV-1 (HIV-1LAI supernatant infection, AlamarBlue); format: cell-based; conditions: Human immunodeficiency virus 1, H9 cells, 10% FCS
# Protocol: For the mixture for a 96-well MTP, 3 million PBLs are pelleted, suspended in 1 ml of RPMI 1640 medium/10% FCS and incubated together with a suitable amount of HIV-1LAI (NIH AIDS Research & Reference Reagent Program, Germantown, USA) at 37° C. for 2 hours (pellet infection). Unadsorbed viruses are subsequently washed out with PBS, and the infected cells are pelleted again and suspended in 18 ml of RPMI 1640 medium/10% FCS/interleukin-2 (40 U/ml). 180 μl thereof are pipetted into each well of a white 96-well MTP with 20 μl of test substance in suitable dilution. Alternatively, after preparation of the substance dilutions in the MTP, the HIV is pipetted in together with the cells and is not washed out again (supernatant infection). In order to avoid edge effects, the wells at the edge of the MTP are not used for substance dilutions. The second vertical row of the MTP contains only infected cells (virus control) and the eleventh vertical row only uninfected cells (cell control), in each case in RPMI 1640 medium/10% FCS/interleukin-2 (40 U/ml). The other wells of the MTP contain the compounds of the invention in various concentrations starting from the third vertical row, from which the test substances are diluted in 3-fold steps up to the tenth vertical row 3^7-fold. The test substances are dissolved in DMSO, whereby the final DMSO concentration in the test mixture is 1%. The test mixtures are incubated at 37° C./5% CO2. After 5 and 7 days, 50 μl of cell-free supernatant are removed from each well to determine the amount of p24 present by means of a p24 ELISA (HIV-1 p24^CA Antigen Capture Assay Kit, NCI-Frederick Cancer Research and Development Center, Frederick, USA). From the resulting values of the photometric evaluation (450/620 nm) the EC50 values of the test substances are determined as the concentration at which the amount of p24 is 50% of the untreated infected cells.
# Alternatively, H9 cells (ATCC, Wesel, Germany) are employed instead of PBLs for testing the test substances. H9 cells are incubated in RPMI 1640 medium with 2% or 10% FCS as a HIV-ILAI supernatant infection at 37° C./5% CO2, (20 μl of substance dilution and 80 μl of cells/virus per well) in accordance with the pattern described above for 5 days. Subsequently, 10 μl of AlamarBlue® (Invitrogen, Karlsruhe, Germany) are added to each well, and the MTPs are incubated at 37° C. for 3 hours before the fluorimetric evaluation takes place (544/590 nm). The resulting values are about 40 000 for the untreated uninfected cells and about 7000 for the untreated infected cells. In the low concentration range, the EC50 values of the test substances are determined as the concentration at which the fluorescence is 50% of the untreated uninfected cells (in each case subtracting the values of the untreated infected cells). In addition, in the high concentration range, the CC50 values of the test substances are determined as the concentration at which the fluorescence is 50% of the untreated uninfected cells (in each case subtracting the values of the untreated infected cells).
SMILES,EC50 (HIV-1NL4-3 K103N-Y181C),IC50 (reverse transcriptase),EC50 (HIV-1NL4-3 wt),EC50 (HIV-1LAI)
"O=C1CN(C(=O)c2cc(-c3cccc(Cl)c3)c(-c3cccc(Cl)c3)o2)CCN1 [Example 30, 4-{[4,5-Bis(3-chlorophenyl)furan-2-yl]carbonyl}piperazin-2-one]",650 nM,750 nM,25 nM,200 nM
"O=C1CN(C(=O)c2cc(-c3cc(F)cc(Cl)c3)c(-c3ccc(F)c(Cl)c3)o2)CN1 [Example 11, 1-{[5-(3-Chloro-4-fluorophenyl)-4-(3-chloro-5-fluorophenyl)furan-2-yl]-carbonyl}imidazolidin-4-one]",255 nM,370 nM,20 nM,77 nM
"N#Cc1cccc(-c2oc(C(=O)N3CCS(=O)(=O)C3)cc2-c2cc(F)cc(Cl)c2)c1 [Example 5, 3-{3-(3-Chloro-5-fluorophenyl)-5-[(1,1-dioxido-1,3-thiazolidin-3-yl)carbonyl]furan-2-yl}benzenecarbonitrile]",305 nM,,< 1.5 nM,17.5 nM
"O=C(c1cc(-c2cc(F)cc(Cl)c2)c(-c2ccc(F)c(Cl)c2)o1)N1CCOCC1 [Example 9, [5-(3-Chloro-4-fluorophenyl)-4-(3-chloro-5-fluorophenyl)furan-2-yl](morpholin-4-yl)methanone]",500 nM,,19 nM,100 nM
"N#Cc1cc(F)cc(-c2cc(C(=O)N3CNC(=O)C3)oc2-c2cccc(Cl)c2)c1 [Example 32, 3-{2-(3-Chlorophenyl)-5-[(4-oxoimidazolidin-1-yl)carbonyl]furan-3-yl}-5-fluorobenzenecarbonitrile]",150 nM,,2 nM,70 nM
"COc1cccc(-c2cc(C(=O)N3CCNC(=O)C3)oc2-c2cccc(Cl)c2)c1 [Example 29, 4-{[5-(3-Chlorophenyl)-4-(3-methoxyphenyl)furan-2-yl]carbonyl}piperazin-2-one]",400 nM,,53 nM,450 nM
"COc1cccc(-c2oc(C(=O)N3CNC(=O)C3)cc2-c2cccc(Cl)c2)c1 [Example 27, 1-{[4-(3-Chlorophenyl)-5-(3-methoxyphenyl)furan-2-yl]carbonyl}imidazolidin-4-one]",700 nM,,14 nM,200 nM
"O=C(c1cc(-c2cc(F)cc(Cl)c2)c(-c2ccc(F)c(Cl)c2)o1)N1CC[S+]([O-])C1 (centres unmarked) [Example 4, [5-(3-Chloro-4-fluorophenyl-1)-4-(3-chloro-5-fluorophenyl)furan-2-yl](1-oxido-1,3-thiazolidin-3-yl)methanone]",261 nM,,< 1.5 nM,12 nM
"N#Cc1cccc(-c2oc(C(=O)N3CC[C@@H](O)C3)cc2-c2cc(F)cc(Cl)c2)c1 [Example 10, 3-[3-(3-Chloro-5-fluorophenyl)-5-{[(3R)-3-hydroxypyrrolidin-1-yl]carbonyl}furan-2-yl]benzenecarbonitrile]",183 nM,,1 nM,14 nM
"O=C1CN(C(=O)c2cc(-c3cc(F)cc(Cl)c3)c(-c3cccc(Cl)c3)o2)CN1 [Example 16, 1-{[4-(3-Chloro-5-fluorophenyl)-5-(3-chlorophenyl)furan-2-yl]carbonyl}imidazolidin-4-one]",200 nM,,2 nM,75 nM
"O=C1CN(C(=O)c2cc(-c3cccc(Cl)c3)c(-c3ccc(F)c(Cl)c3)o2)CN1 [Example 25, 1-{[5-(3-Chloro-4-fluorophenyl)-4-(3-chlorophenyl)furan-2-yl]carbonyl}imidazolidin-4-one]",250 nM,,18 nM,225 nM
"N#Cc1cc(-c2oc(C(=O)N3CNC(=O)C3)cc2-c2cc(F)cc(Cl)c2)ccc1F [Example 23, 5-{3-(3-Chloro-5-fluorophenyl)-5-[(4-oxoimidazolidin-1-yl)carbonyl]furan-2-yl}-2-fluorobenzenecarbonitrile]",100 nM,,2 nM,18 nM
"N#Cc1cccc(-c2oc(C(=O)N3CCNC(=O)C3)cc2-c2cc(F)cc(Cl)c2)c1 [Example 8, 3-{3-(3-Chloro-5-fluorophenyl)-5-[(3-oxopiperazin-1-yl)carbonyl]furan-2-yl}benzenecarbonitrile]",160 nM,,1 nM,7 nM

# Source: patent US8324268B2, “Substituted furancarboxamides, and use thereof” (AiCuris GmbH & Co. KG, priority 2008, dated 2012)
